Assay results from patent US10206388B2, “Formulation component” (SYNGENTA LIMITED, priority 2011, dated 2019).

Experiments:
Assay type in all cases: in vivo
[1] = tested on: Abutilon theophrasti (ABUTH); assay: Glasshouse weed test, fomesafen with adjuvants; settings: Table 8, Example 6: fomesafen 60 or 120 g/ha; adjuvant 0.2% v/v; mean over two rates, three replicates, 7, 14 and 20 days
Experimental: (§1) The aromatic ester Finsolv® TN (C12-C15 alkyl benzoate) was tested in a glasshouse against four weed species using the herbicide fomesafen. An agrochemical composition was prepared containing 0.2% v/v of the adjuvant in a track sprayer and was applied at a volume of 200 liters per hectare. Fomesafen was applied at either 60 or 120 grams of pesticide per hectare on each of the weed species. The weed species and their growth stage at spraying were Chenopodium album (CHEAL; growth stage 14), Abutilon theophrasti (ABUTH; growth stage 12), Setaria viridis (SETVI; growth stage 13), and Xanthium strumarium (XANST; growth stage 12).
(§2) Each spray test was replicated three times. The efficacy of the herbicide was assessed visually and expressed as a percentage of the leaf area killed. Samples were assessed at time periods of 7, 14 and 20 days following application. The results shown in Table 8 below are mean averages over the two rates of fomesafen, three replicates and the three assessment timings, and are compared to the efficacy of fomesafen in the absence of an adjuvant, and fomesafen in the presence of the commercially available adjuvant Turbocharge®.

Setaria viridis (SETVI) = assay: Glasshouse weed test, fomesafen with adjuvants; settings: Table 8, Example 6: fomesafen 60 or 120 g/ha; adjuvant 0.2% v/v; mean over two rates, three replicates, 7, 14 and 20 days
Experimental: as §1, §2

[2] = tested on: Xanthium strumarium (XANST); assay: Glasshouse weed test, fomesafen with adjuvants; settings: Table 8, Example 6: fomesafen 60 or 120 g/ha; adjuvant 0.2% v/v; mean over two rates, three replicates, 7, 14 and 20 days
Experimental: as §1, §2

[3] = tested on: Chenopodium album (CHEAL); assay: Glasshouse weed test, fomesafen with adjuvants; settings: Table 8, Example 6: fomesafen 60 or 120 g/ha; adjuvant 0.2% v/v; mean over two rates, three replicates, 7, 14 and 20 days
Experimental: as §1, §2

[4] = tested on: four weed species (POLCO, BRAL, DIGSA, COMBE); assay: Glasshouse weed test, fomesafen with adjuvants, mean across species; settings: mean over two rates, three replicates, 14 and 21 days
Experimental: An agrochemical composition was prepared containing 0.2% v/v of the adjuvant in a track sprayer and was applied at a volume of 200 liters per hectare. The adjuvant oils were emulsified using a small amount of the surfactant Pluronic® PE 10500, which was present in the composition at a concentration of 0.02% v/v. Fomesafen was applied at either 60 or 120 grams of pesticide per hectare on each of the weed species. The weed species and their growth stage at spraying were Polygonum convolvulus (POLCO; growth stage 13-14), Brachiaria plantaginea (BRAL; growth stage 13-14), Digitaria sanguinalis (DIGSA; growth stage 14), and Commelina benghalensis (COMBE; growth stage 13-14).
as §2, with “of” for “of 7,”, “21” for “20”, “20” for “8”, “replicates the two assessment timings,” for “replicates”, “four weed species,” for “three assessment timings,”
An agrochemical composition was prepared containing either 0.2, 0.1, 0.05 or 0.025% v/v of the adjuvant in a track sprayer and was applied at a volume of 200 liters per hectare. The commercial adjuvant Turbocharge® was applied at 0.5% v/v. Fomesafen was applied at either 60 or 120 grams of pesticide per hectare on each of the weed species. The weed species and their growth stage at spraying were Polygonum convolvulus (POLCO; growth stage 13-14), Brachiaria plantaginea (BRAL; growth stage 12-13), Digitaria sanguinalis (DIGSA; growth stage 13), and Commelina benghalensis (COMBE; growth stage 12).
as §2, with “of” for “of 7,”, “21” for “20”, “24” for “8”, “replicates the two assessment timings,” for “replicates”, “four weed species,” for “three assessment timings,”, “Turbocharge®. […]” for “Turbocharge®.”
Each spray test was replicated three times. The efficacy of the herbicide was assessed visually and expressed as a percentage of the leaf area killed. Samples were assessed at time periods of 14 and 21 days following application. […]

[5] = tested on: four weed species (CHEAL, ABUTH, SETVI, XANST); assay: as above; settings: adjuvant 0.2% v/v, mean over two rates
Experimental: as §1, §2
A second experiment was conducted to assess the efficacy of Finsolv® TN as an adjuvant in compositions of fomesafen. This was carried out as outlined above, with the following change: samples were assessed at 6, 14 and 20 days post application.
The results shown in Table 9 below are mean averages over the two rates of fomesafen, three replicates, three assessment timings, and four weed species and are compared to the efficacy of fomesafen in the absence of an adjuvant, and fomesafen in the presence of the commercially available tank-mix adjuvant, Turbocharge®.
An agrochemical composition was prepared containing 0.2% v/v of the adjuvant in a track sprayer and was applied at a volume of 200 liters per hectare. […]
Each spray test was replicated three times. The efficacy of the herbicide was assessed visually and expressed as a percentage of the leaf area killed. Samples were assessed at time periods of 7, 14 and 20 days following application. […]

CS(=O)(=O)NC(=O)c1cc(Oc2ccc(C(F)(F)F)cc2Cl)ccc1[N+](=O)[O-] [Fomesafen, fomesafen]
Mean percentage kill ABUTH [1]: 19.7 C %
Mean percentage kill SETVI (Setaria viridis (SETVI)): 10.3 B %
Mean percentage kill XANST [2]: 59.2 C %
Mean percentage kill CHEAL [3]: 34.7 C %
Mean percentage kill, Mean across species ([4]; Table 20, Example 16: fomesafen 60 or 120 g/ha, adjuvant 0.2% v/v emulsified with Pluronic PE 10500 0.02% v/v): 24.3D %
Mean percentage kill, Mean across species ([4]; Table 24, Example 20: absence of an adjuvant, fomesafen 60 or 120 g/ha): 17.8E %
Mean percentage kill, Mean across species ([4]; Table 28, Example 25: fomesafen 60 or 120 g/ha, adjuvant 0.2% v/v): 32.8C %
Mean percentage kill, Mean across species ([4]; Table 34, Example 34: fomesafen 60 or 120 g/ha, adjuvant 0.2% v/v): 17.8B %
Mean percentage kill, Mean across species ([5]; Table 8, Example 6: fomesafen 60 or 120 g/ha, three replicates, 7, 14 and 20 days): 31.0 C %
Mean percentage kill, Mean across species ([5]; Table 9, Example 6 second experiment: fomesafen 60 or 120 g/ha, three replicates, 6, 14 and 20 days, four weed species): 44.9 B %
Mean percentage kill, Mean across species ([5]; Table 15, Example 11: fomesafen 60 or 120 g/ha, three replicates, 7, 14 and 20 days, four weed species): 37.7 C %
